For one assay, the system named is C57BL/6 mice. Put plainly: Irradiation-induced thrombocytopenia (5 Gy total body irradiation). In kind it is in vivo, mouse (C57BL/6). The following applies: 5 Gy. Here is the method: Seven or 8-week-old male C57BL/6 mice (Jackson Laboratories) were either exposed to 5 Gy cesium (Cs^137) total body irradiation (TBI) using a Model 8114 6000 Curie Shepherd Cs^137 irradiator (approximately 3200 Curie sealed Cs^137 source) with a dose rate of […] or left unexposed. Mice (n=4) received intravenous injections of vehicle (8% DMSO) or 15d-PGJ2 (1 mg/kg) or CDDO-Me (250 μg/kg) for 4 consecutive days from day 1 (days 1, 2, 3 and 4 post-irradiation). Blood was obtained from the aorta or the orbital sinus. Platelets were counted prior to radiation exposure and after radiation exposure on day 10, day 22, and day 31 in Example 7, or days 4, 10, 16, and 21 in Example 9 using the Heska® CBC-Diff™ Veterinary Analyzer (Fort Collins, Colo.). Data are expressed as average platelet counts from two separate experiments. For the unirradiated mice, platelets were counted on day 4, day 10, and day 15 in Example 7 or on the same days in Example 9.

For assay [1], the system named is primary mouse megakaryocytes. Description: DNA content analysis of primary mouse megakaryocytes. The format is cell-based. The following applies: by 24 h. Here is the method:
Bone marrow was isolated from the femora of male C57BL/6 mice (Jackson Laboratories, Bar Harbor, Me.) and plated at a concentration of 1×10^6 cells per well in 12-well plates in IMDM (Iscove's Modified Dulbecco's Media, Invitrogen) with 20% BIT 9500 (BSA, insulin, transferrin) and supplemented with 100 ng/mL of rhTPO. Cells were cultured for 5 days, following which 15d-PGJ2 (10 μM) was added to the culture medium for 24 h. On the sixth day, cells were examined by phase-contrast microscopy using an inverted microscope (Olympus IX81) and images were captured using SPOT RT software (New Hyde Park, N.Y.). Megakaryocytes were identified by preincubating with anti-mouse CD16/32 (FcγR-blocking antibody) and then incubating with PE-conjugated hamster anti-mouse CD41 antibody.
Cells were fixed in 95% ethanol, treated with RNAse (Sigma) followed by 20 μg/mL propidium iodide (Sigma) to stain DNA, and analyzed by flow cytometry.

In assay [2] the test system is mouse megakaryocyte progenitors (Meg-CFC). Put plainly: Megakaryocyte progenitor (Meg-CFC) assay on bone marrow of treated mice. In kind it is in vivo. Here is the method:
Primary mouse bone marrow cells were suspended in IMDM at a concentration of 8×10^6 cells/mL. Two-hundred thousand cells were plated in IMDM supplemented with 20% BIT9500, 0.2% 2-mercaptoethanol, 2% Glutamax, and 20% Cellgro-H20 (Mediatech, Herndon, Va.) and cultured with rhTPO (50 ng/mL), IL-3 (10 ng/mL) (Preprotech, Rocky Hill, N.J.), IL-6 (20 ng/mL) (Preprotech), IL-11 (Preprotech) (50 ng/mL), and collagen at 37° for 7 days (Tober et al., “The Megakaryocyte Lineage Originates from Hemangioblast Precursors and is an Integral Component Both of Primitive and of Definitive Hematopoiesis,” Blood 109:1433-1441 (2007), which is hereby incorporated by reference in its entirety). Collagen gels were dehydrated, fixed, and labeled with GPIbβ and GPV, modified by ABC (Vector Labs, Burlingame, Calif.), and developed in Vector Red (Vector Labs). Meg-CFC were defined by their ability to generate colonies containing at least three megakaryocytes.

As to `COC(=O)[C@]12CCC(C)(C)C[C@H]1[C@H]1C(=O)C=C3[C@@]4(C)C=C(C#N)C(=O)C(C)(C)[C@@H]4CC[C@@]3(C)[C@]1(C)CC2` [CDDO-Me, methyl-2-cyano-3,12-dioxooleana-1,9-dien-28-oate], the platelet counts result is on record as “increased platelet counts” in the assay with C57BL/6 mice (250 μg/kg days 1-4, day 4); “significantly improved platelet counts” with C57BL/6 mice (250 μg/kg days 1-4, days 10 and 16). Further, the “primary mouse megakaryocyte ploidy” value in assay [1] is listed as “enhanced primary mouse megakaryocyte ploidy”. Also, the megakaryocyte number result in assay [2] was “failed to increase megakaryocyte number”. Also, the “percentage of megakaryocytes producing proplatelets” value in assay [2] (mice injected 250 μg/kg for three consecutive days, 7 days of culture) is reported as “significantly augmented the percentage of megakaryocytes producing proplatelets”. Further, the “Meg-CFC colony formation compared to vehicle control” value in assay [2] (normal mice, 250 μg/kg for three consecutive days, bone marrow plated day 4) is recorded as “significantly enhanced Meg-CFC colony formation”.

The record behind these values is US9012439B2, “Use of electrophilic compounds for inducing platelet production or maintaining platelet function” (University of Rochester, priority 2007, dated 2015).
